The values that follow come from US4459290A, “C-23-Modified derivatives of OMT, pharmaceutical compositions and method of use” (priority 1982, dated 1984).

The structures appear in SMILES notation. ≈ marks a conversion by molar mass, not a printed value. Read-outs that look alike come from different tables or passages of the source.

In one test the test system is Pasteurella multocida. The test is described as follows: Protection of one-day-old chicks against Pasteurella multocida infection (Table IX). The format is in vivo. The conditions noted are these: subcutaneous 30 mg/kg × 2, 1 and 4 hours post-challenge. Put shortly:
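One-day-old chicks were challenged subcutaneously with 0.1 ml of a twenty-hour tryptose broth culture of avian P. multocida. Compound was given subcutaneously at 30 mg/kg, 1 and 4 hours post-challenge, and protection against death was followed, with non-medicated infected chicks as controls.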

The test system of test [1] is Streptococcus pyogenes C203. The test is described as follows: MIC, standard agar-dilution assay (Table V). Format: cell-based. The conditions noted are these: Streptococcus pyogenes. Here is the method:
(§1) The MIC's in Tables V and VI were determined by standard agar-dilution assays. The MIC's in Table VII were obtained using a conventional broth-dilution microtiter test.

For test [2], the system named is Haemophilus influenzae Holt. The test is described as follows: MIC, standard agar-dilution assay (Table V). Format: cell-based. The conditions noted are these: Haemophilus influenzae. Here is the method: as §1
For the next test, the system named is Escherichia coli TEM. The test is described as follows: MIC, standard agar-dilution assay (Table V). The format is cell-based. The note with it: Escherichia coli. Here is the method: as §1
Test [3] has as its system Haemophilus influenzae R252. The test can be described thus: MIC, standard agar-dilution assay (Table V). Format: cell-based. The conditions noted are these: Haemophilus influenzae. On the procedure:
as §1

Test [4] has as its system Streptococcus pneumoniae Park I. The test is described as follows: microbe, parasite or virus in culture. The conditions noted are these: Streptococcus pneumoniae, read-out: MIC. The format is cell-based. Here is the method: (§2) Especially noteworthy is the improved activity against gram-negative bacteria for several derivatives when compared to the activity of OMT. […] The MIC's in Tables V and VI were determined by standard agar-dilution assays. The MIC's in Table VII were obtained using a conventional broth-dilution microtiter test.

The next test concerns Serratia marcescens SE3. The test is described as follows: MIC, standard agar-dilution assay (Table VI). The format is cell-based. Put shortly:
(§3)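 Growth inhibition in liquid medium, in a routine microtiter broth-dilution series, gave the MIC against staphylococci and pasteurellae; the gram-negative enteric strain was tested by conventional agar dilution instead.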

For test [5], the system named is Enterobacter aerogenes C32. The test is described as follows: MIC, standard agar-dilution assay (Table VI). The format is cell-based. The note with it: Klebsiella aerogenes. Put shortly: (§4)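 Conventional dilution MICs: agar for Enterobacter, microtiter broth for Staphylococcus and Pasteurella.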
Test [6] deals with Pseudomonas aeruginosa X528. The test is described as follows: MIC, standard agar-dilution assay (Table VI). Format: cell-based. On the procedure:
as §2

In test [7] the test system is Citrobacter freundii CF17. The test can be described thus: MIC, standard agar-dilution assay (Table VI). Format: cell-based. The essentials:
as §3

In a further test the test system is Enterobacter cloacae EB5. The test is described as follows: MIC, standard agar-dilution assay (Table VI). Format: cell-based. Put shortly:
as §4

The test system of test [8] is Enterobacter aerogenes EB17. The test is described as follows: MIC, standard agar-dilution assay (Table VI). Format: cell-based. The note with it: Klebsiella aerogenes. Put shortly:
as §4

Setting [9] is: S. pyogenes C203, agar dilution, read-out: MIC.
Setting [10] is: H. influenzae Holt, ampicillin-sensitive strain, agar dilution, read-out: MIC.
Where [11] appears, read: H. influenzae R252, ampicillin-resistant strain, agar dilution, read-out: MIC.
Where [12] appears, read: S. marcescens SE3, agar dilution, read-out: MIC.
Where [13] appears, read: E. cloacae EB5, agar dilution, read-out: MIC.
[14] abbreviates: E. coli TEM, agar dilution, read-out: MIC.
The mark [15] stands for this setting: E. aerogenes C32, agar dilution, read-out: MIC.
The mark [16] stands for this setting: C. freundii CF17, agar dilution, read-out: MIC.
Where [17] appears, read: E. aerogenes EB17, agar dilution, read-out: MIC.
The mark [18] stands for this setting: P. aeruginosa X528, agar dilution, read-out: MIC.

Consider `CCC1OC(=O)CC(O)C(C)C(OC2OC(C)C(O)C(N(C)C)C2O)C(CC=O)CC(C)C(=O)C=CC(C)=CC1CSc1ccccc1` (stereo not shown) [Compound 2, 23-Deoxy-23-(phenyl)thio-OMT], for which the “Number of deaths/number treated” value with Pasteurella multocida is 10/10. The MIC in test [1] (setting [9]) worked out at 0.015 mg/L (≈ 0.0217 µM); in test [2] (setting [10]), 1 mg/L (≈ 1.45 µM); in the test with Escherichia coli TEM it was 8 mg/L (≈ 11.6 µM); in test [3] (setting [11]), 1 mg/L (≈ 1.45 µM); in test [4] it was 0.06 mg/L (≈ 0.087 µM); in the test on Serratia marcescens SE3 (setting [12]) it was 64 mg/L (≈ 92.8 µM). In addition, the MIC in [5] (C32) amounted to 32 mg/L (≈ 46.4 µM); in [6] (X528), 16 mg/L (≈ 23.2 µM); in test [7] (CF17), 32 mg/L (≈ 46.4 µM); in the test on Enterobacter cloacae EB5 (setting [13]) it was 64 mg/L (≈ 92.8 µM); in test [8] (EB17) it was 32 mg/L (≈ 46.4 µM).
Take `CCC1OC(=O)CC(O)C(C)C(OC2OC(C)C(O)C(N(C)C)C2O)C(CC=O)CC(C)C(=O)C=CC(C)=CC1CSc1nnc(C)s1` (stereo not shown) [Compound 3, 23-Deoxy-23-(5-methyl-1,3,4-thiadiazol-2-yl)thio-OMT]: the “Number of deaths/number treated” value in the test on Pasteurella multocida is recorded as 10/10. For the same molecule, the MIC was 0.125 mg/L (≈ 0.176 µM) in test [1] (C203); 2 mg/L (≈ 2.81 µM) in test [2]; 32 mg/L (≈ 44.9 µM) in the test on Escherichia coli TEM (setting [14]); 2 mg/L (≈ 2.81 µM) in [3] (setting [11]); 0.06 mg/L (≈ 0.0843 µM) in test [4]; more than 128 mg/L in the test with Serratia marcescens SE3 (setting [12]). Moreover, the MIC in test [5] (setting [15]) is more than 128 mg/L; in test [6] (X528) it was 64 mg/L (≈ 89.9 µM); in test [7] (setting [16]), more than 128 mg/L; with Enterobacter cloacae EB5 (setting [13]), more than 128 mg/L; in test [8] (setting [17]), more than 128 mg/L.
`CCC1OC(=O)CC(O)C(C)C(OC2OC(C)C(O)C(N(C)C)C2O)C(CC=O)CC(C)C(=O)C=CC(C)=CC1CSc1nnnn1C` (stereo not shown) [Compound 5, 23-Deoxy-23-(1-methyltetrazol-5-yl)thio-OMT]: in the test with Pasteurella multocida, the “Number of deaths/number treated” value is listed as 3/10. Also, the MIC in test [1] (C203) was 0.25 mg/L (≈ 0.359 µM); in test [2], 4 mg/L (≈ 5.75 µM); in the test on Escherichia coli TEM (setting [14]) it was 32 mg/L (≈ 46 µM); in test [3] (R252), 2 mg/L (≈ 2.87 µM); in test [4], 0.06 mg/L (≈ 0.0862 µM); in the test with Serratia marcescens SE3 (SE3) it was more than 128 mg/L. The MIC in test [5] (C32) is more than 128 mg/L; in test [6] (X528), 64 mg/L (≈ 92 µM); in test [7] (CF17) it was more than 128 mg/L; with Enterobacter cloacae EB5 (EB5) it was more than 128 mg/L; in test [8] (EB17) it was more than 128 mg/L.
With `CCC1OC(=O)CC(O)C(C)C(OC2OC(C)C(O)C(N(C)C)C2O)C(CC=O)CC(C)C(=O)C=CC(C)=CC1CSC(C)=O` (stereo not shown) [Compound 7, 23-Deoxy-23-(acetyl)thio-OMT], the “Number of deaths/number treated” value with Pasteurella multocida was 10/10. Further, the MIC in test [1] (C203) is 0.25 mg/L (≈ 0.381 µM); in test [2] (setting [10]), 1 mg/L (≈ 1.52 µM); in test [3] (R252), 2 mg/L (≈ 3.05 µM); in test [4] it was 0.06 mg/L (≈ 0.0915 µM); against Serratia marcescens SE3 (SE3), more than 128 mg/L; in test [5] (C32), more than 128 mg/L. For the same molecule, the MIC in test [6] (setting [18]) was 32 mg/L (≈ 48.8 µM); in test [7] (CF17) it was more than 128 mg/L; in the test with Enterobacter cloacae EB5 (EB5) it was more than 128 mg/L; in test [8] (EB17), more than 128 mg/L.
Regarding `CCC1OC(=O)CC(O)C(C)C(OC2OC(C)C(O)C(N(C)C)C2O)C(CC=O)CC(C)C(=O)C=CC(C)=CC1CN=[N+]=[N-]` (stereo not shown) [Compound 8, 23-Deoxy-23-azido-OMT], the “Number of deaths/number treated” value in the test with Pasteurella multocida is reported as 10/10. In addition, the MIC in [1] (C203) was 0.125 mg/L (≈ 0.201 µM); in [2], 1 mg/L (≈ 1.61 µM); against Escherichia coli TEM, 16 mg/L (≈ 25.7 µM); in test [3] (R252) it was 1 mg/L (≈ 1.61 µM); in [4] it was 0.06 mg/L (≈ 0.0963 µM); in the test on Serratia marcescens SE3 (setting [12]), more than 128 mg/L. Besides, the MIC was 64 mg/L (≈ 103 µM) in test [5] (C32); 16 mg/L (≈ 25.7 µM) in test [6] (setting [18]); more than 128 mg/L in test [7] (setting [16]); more than 128 mg/L in the test with Enterobacter cloacae EB5 (setting [13]); 64 mg/L (≈ 103 µM) in [8] (EB17).
As to `CCC1OC(=O)CC(O)C(C)C(OC2OC(C)C(O)C(N(C)C)C2O)C(CC=O)CC(C)C(=O)C=CC(C)=CC1CF` (stereo not shown) [Compound 15, 23-Deoxy-23-fluoro-OMT], the MIC in [1] (setting [9]) is 0.125 mg/L (≈ 0.208 µM); in test [2] (setting [10]), 1 mg/L (≈ 1.67 µM); against Escherichia coli TEM, 8 mg/L (≈ 13.3 µM); in test [3] (R252) it was 0.5 mg/L (≈ 0.834 µM); in [4] (S. pneumoniae Park I, agar dilution) it was 0.125 mg/L (≈ 0.208 µM); in the test on Serratia marcescens SE3 (setting [12]), more than 128 mg/L. The MIC is 64 mg/L (≈ 107 µM) in test [5] (setting [15]); 16 mg/L (≈ 26.7 µM) in test [6] (setting [18]); more than 128 mg/L in [7] (setting [16]); more than 128 mg/L in the test on Enterobacter cloacae EB5 (setting [13]); 64 mg/L (≈ 107 µM) in test [8] (setting [17]).
